In patent US6441195B1, “Substituted sulphonylamino(thio) carbonyl compounds” (Bayer Aktiengesellschaft, priority 1995, dated 2002):

Tests used:
Format in all cases: in vivo
[1] = tested on: weeds; assay: Pre-emergence test (greenhouse), activity against weeds; conditions: in words
Experimental: Solvent: 5 parts by weight of acetone
Emulsifier: 1 part by weight of alkylaryl polyglycol ether
(§1) To produce a suitable preparation of the active compound, 1 part by weight of active compound is mixed with the stated amount of solvent, the stated amount of emulsifier is added and the concentrate is diluted with water to the desired concentration.
(§2) Seeds of the test plants are sown in normal soil. After about 24 hours, the soil is watered with the preparation of active compound. Advantageously, the amount of water per unit area is kept constant. The active compound concentration in the preparation is not important, only the active compound appliation rate per unit area matters.
(§3) After three weeks, the degree of damage to the plants is rated in % damage in comparison to the development of the untreated control.
(§4) 0%=no action (like untreated control)

[2] = tested on: Maize; assay: Pre-emergence test/Greenhouse, Maize; conditions: in vivo
Experimental: as §1, §2, §3, §4

[3] = tested on: Lolium; assay: Pre-emergence test/Greenhouse, Lolium; conditions: after three weeks
Experimental: as §1, §2, §3, §4

[4] = tested on: Poa; assay: Pre-emergence test/Greenhouse, Poa; conditions: after three weeks
Experimental: as §1, §2, §3, §4

[5] = tested on: Sorghum; assay: Pre-emergence test/Greenhouse, Sorghum; conditions: after three weeks
Experimental: as §1, §2, §3, §4

[6] = tested on: Ambrosia; assay: Pre-emergence test/Greenhouse, Ambrosia; conditions: after three weeks
Experimental: as §1, §2, §3, §4

[7] = tested on: Matricaria; assay: Pre-emergence test/Greenhouse, Matricaria; conditions: after three weeks
Experimental: as §1, §2, §3, §4

[8] = tested on: Solanum; assay: Pre-emergence test/Greenhouse, Solanum; conditions: after three weeks
Experimental: as §1, §2, §3, §4

Structure (SMILES)	activity against weeds [1]	degree of damage to the plants (% damage vs untreated control), Maize [2] [%]	degree of damage to the plants (% damage vs untreated control), Lolium ([3]; 125 g of ai./ha) [%]	degree of damage to the plants (% damage vs untreated control), Poa ([4]; 125 g of ai./ha) [%]	degree of damage to the plants (% damage vs untreated control), Sorghum ([5]; 125 g of ai./ha) [%]	degree of damage to the plants (% damage vs untreated control), Ambrosia ([6]; 125 g of ai./ha) [%]	degree of damage to the plants (% damage vs untreated control), Matricaria ([7]; 125 g of ai./ha) [%]	degree of damage to the plants (% damage vs untreated control), Solanum ([8]; 125 g of ai./ha) [%]	degree of damage to the plants (% damage vs untreated control), Lolium ([3]; 60 g of ai./ha) [%]	degree of damage to the plants (% damage vs untreated control), Poa ([4]; 60 g of ai./ha) [%]	degree of damage to the plants (% damage vs untreated control), Sorghum ([5]; 60 g of ai./ha) [%]	degree of damage to the plants (% damage vs untreated control), Ambrosia ([6]; 60 g of ai./ha) [%]	degree of damage to the plants (% damage vs untreated control), Matricaria ([7]; 60 g of ai./ha) [%]	degree of damage to the plants (% damage vs untreated control), Solanum ([8]; 60 g of ai./ha) [%]	degree of damage to the plants (% damage vs untreated control), Lolium ([3]; 8 g of ai./ha) [%]	degree of damage to the plants (% damage vs untreated control), Poa ([4]; 8 g of ai./ha) [%]	degree of damage to the plants (% damage vs untreated control), Sorghum ([5]; 8 g of ai./ha) [%]	degree of damage to the plants (% damage vs untreated control), Ambrosia ([6]; 8 g of ai./ha) [%]	degree of damage to the plants (% damage vs untreated control), Matricaria ([7]; 8 g of ai./ha) [%]	degree of damage to the plants (% damage vs untreated control), Solanum ([8]; 8 g of ai./ha) [%]
COC(=O)c1scc(C)c1S(=O)(=O)NC(=O)c1noc(C)n1 [Example 13]	very strong activity against weeds	30	90	80	70	95	95	90												
CCOC(=O)c1scc(C)c1S(=O)(=O)NC(=O)n1nc(CC)n(OCC)c1=O [Example 61]	very strong activity against weeds	0	95	95	80	100	95	95												
CCOc1nn(C(=O)NS(=O)(=O)c2c(C)csc2C(=O)OC)c(=O)n1CC [Example 41]	very strong activity against weeds	0							60	80	60	95	95	90						
CCOc1nn(C(=O)NS(=O)(=O)c2c(C)cccc2C(=O)OC(C)C)c(=O)n1C1CC1 [Example 46]	very strong activity against weeds	0													80	95	80	95	95	95
COC(=O)c1cccc(C)c1S(=O)(=O)NC(=O)c1noc(C)n1 [Example 9]	very strong activity against weeds	0	80	80	60	95	90	95												
CCCc1nn(C(=O)NS(=O)(=O)c2c(C)csc2C(=O)OC)c(=O)n1C [Example 35]	very strong activity against weeds	0							95	95	95	95	100	95						
CCOC(=O)c1scc(C)c1S(=O)(=O)NC(=O)n1nc(SC)n(C)c1=O [Example 55]	very strong activity against weeds	10	100	90	60	100	100	100												
